This passage reports IC50 results from US9216986B1, “Quinoline derivatives as PDE10A enzyme inhibitors” (H. Lundbeck A/S, priority 2011, dated 2015).

Where “and” joins values, the source holds several entries; their conditions need not be identical. Equal values may be shown once.

The experiment has as its target PDE10A enzyme (Homo sapiens (Human), UniProt Q9Y233). Put plainly: PDE10A inhibition assay. The format is biochemical. Particulars: tritium labeled cAMP 5 nM. The procedure:
Active PDE10A enzyme is prepared in a number of ways for use in PDE assays (Loughney, K. et al. Gene 1999, 234, 109-117; Fujishige, K. et al. Eur J Biochem. 1999, 266, 1118-1127 and Soderling, S. et al. Proc. Natl. Acad. Sci. 1999, 96, 7071-7076). PDE10A can be expressed as full-length proteins or as truncated proteins, as long as they express the catalytic domain. PDE10A can be prepared in different cell types, for example insect cells or E. coli. An example of a method to obtain catalytically active PDE10A is as follows: The catalytic domain of human PDE10A (amino acids 440-779 from the sequence with accession number NP 006652) is amplified from total human brain total RNA by standard RT-PCR and is cloned into the BamH1 and Xho1 sites of the pET28a vector (Novagen). Expression in coli is performed according to standard protocols. Briefly, the expression plasmids are transformed into the BL21(DE3) E. coli strain, and 50 mL cultures inoculated with the cells allowed to grow to an OD600 of 0.4-0.6 before protein expression is induced with 0.5 mM IPTG. Following induction, the cells are incubated overnight at room temperature, after which the cells are collected by centrifugation. Cells expressing PDE10A are resuspended in 12 mL (50 mM TRIS-HCl-pH8.0, 1 mM MgCl2 and protease inhibitors). The cells are lysed by sonication, and after all cells are lysed, TritonX100 is added according to Novagen protocols.
A PDE10A assay may for example, be performed as follows: The assay is performed in 60 uL samples containing a fixed amount of the relevant PDE enzyme (sufficient to convert 20-25% of the cyclic nucleotide substrate), a buffer (50 mM HEPES7.6; 10 mM MgCl2; 0.02% Tween20), 0.1 mg/ml BSA, 225 pCi of ^3H-labelled cyclic nucleotide substrate, tritium labeled cAMP to a final concentration of 5 nM and varying amounts of inhibitors. Reactions are initiated by addition of the cyclic nucleotide substrate, and reactions are allowed to proceed for one hr at room temperature before being terminated through mixing with 15 uL 8 mg/mL yttrium silicate SPA beads (Amersham). The beads are allowed to settle for one hr in the dark before the plates are counted in a Wallac 1450 Microbeta counter. The measured signal can be converted to activity relative to an uninhibited control (100%) and IC50 values can be calculated using the XIfit extension to EXCEL.

Chain of PDE10A enzyme (Q9Y233 716-1055): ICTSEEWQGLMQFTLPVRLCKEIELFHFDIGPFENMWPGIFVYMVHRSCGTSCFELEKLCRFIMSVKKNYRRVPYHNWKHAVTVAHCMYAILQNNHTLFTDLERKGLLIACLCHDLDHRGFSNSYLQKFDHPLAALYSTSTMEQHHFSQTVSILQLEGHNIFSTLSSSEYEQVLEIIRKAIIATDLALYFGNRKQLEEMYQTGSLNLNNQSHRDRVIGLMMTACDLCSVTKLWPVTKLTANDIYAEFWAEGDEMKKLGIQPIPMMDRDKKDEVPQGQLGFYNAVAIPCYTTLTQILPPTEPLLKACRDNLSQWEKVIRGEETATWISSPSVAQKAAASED

Broadly, the IC50 is the concentration that inhibits the measured activity by half. Take `Cc1ccc(O)c2nc(CCc3ccc4cc(F)ccc4n3)nn12` [2-[2-(6-Fluoro-quinolin-2-yl)-ethyl]-5-methyl-[1,2,4]triazolo[1,5-a]pyridin-8-ol]: the IC50 worked out at 0.085 µM. The compound `Cc1ncc(C)n2nc(CCc3ccc4cc(Cl)cc(F)c4n3)nc12` [6-Chloro-2-[2-(5,8-dimethyl-[1,2,4]triazolo[1,5-a]pyrazin-2-yl)-ethyl]-8-fluoro-quinoline] returned an IC50 of 0.24 µM. `Cc1ncc(C)n2nc(CCc3ccc4ccccc4n3)nc12` [2-[2-(5,8-Dimethyl-[1,2,4]triazolo[1,5-a]pyrazin-2-yl)-ethyl]-quinoline] showed an IC50 of 0.019 µM. The figure for `Cc1ncc(C)n2nc(CCc3ccc4c(Cl)cc(Cl)cc4n3)nc12` [5,7-Dichloro-2-[2-(5,8-dimethyl-[1,2,4]triazolo[1,5-a]pyrazin-2-yl)-ethyl]-quinoline] is 0.039 µM. `Cc1cc(CCc2nc3c(C)ncc(C)n3n2)nc2ccccc12` [2-[2-(5,8-Dimethyl-[1,2,4]triazolo[1,5-a]pyrazin-2-yl)-ethyl]-4-methyl-quinoline]: it took 0.018 µM to reach half-maximal inhibition (IC50). Consider `Cc1ncc(C)n2nc(/C=C/c3ccc4cc(C(F)(F)F)ccc4n3)nc12` [2-[(E)-2-(5,8-Dimethyl-[1,2,4]triazolo[1,5-a]pyrazin-2-yl)-vinyl]-6-trifluoromethyl-quinoline], for which the IC50 is 0.49 µM. In turn, `COc1cc(CCc2nc3c(C)ncc(C)n3n2)nc2ccc(F)cc12` [2-[2-(5,8-Dimethyl-[1,2,4]triazolo[1,5-a]pyrazin-2-yl)-ethyl]-6-fluoro-4-methoxy-quinoline] yielded a concentration for half-maximal inhibition (IC50) of 0.014 µM. `Cc1cc(Cl)c2nc(CCc3nc4c(C)ncc(C)n4n3)ccc2c1` [8-Chloro-2-[2-(5,8-dimethyl-[1,2,4]triazolo[1,5-a]pyrazin-2-yl)-ethyl]-6-methyl-quinoline]: the IC50 is 0.29 µM. In turn, `Cc1ncc(C)n2nc(CCc3cc(O)c4cc(F)ccc4n3)nc12` [2-[2-(5,8-Dimethyl-[1,2,4]triazolo[1,5-a]pyrazin-2-yl)-ethyl]-6-fluoro-quinolin-4-ol] came in with an IC50 of 0.41 µM. For `COc1cc(CCc2nc3c(OC)ccc(C)n3n2)nc2ccccc12` [4-Methoxy-2-[2-(8-methoxy-5-methyl-[1,2,4]triazolo[1,5-a]pyridin-2-yl)-ethyl]-quinoline], the midpoint of inhibition, the IC50, lay at 0.035 µM. Consider `COc1cc(CCc2nc3c(C)ncc(C)n3n2)nc2cc(F)ccc12` [2-[2-(5,8-Dimethyl-[1,2,4]triazolo[1,5-a]pyrazin-2-yl)-ethyl]-7-fluoro-4-methoxy-quinoline], for which the IC50 is 0.026 µM. `CCc1ccc(C)n2nc(CCc3ccc4cc(F)ccc4n3)nc12` [2-[2-(8-Ethyl-5-methyl-[1,2,4]triazolo[1,5-a]pyridin-2-yl)-ethyl]-6-fluoro-quinoline] gave an IC50 of 0.025 µM. In turn, `Cc1ncc(C)n2nc(CCc3cc(O)c4ccc(F)cc4n3)nc12` [2-[2-(5,8-Dimethyl-[1,2,4]triazolo[1,5-a]pyrazin-2-yl)-ethyl]-7-fluoro-quinolin-4-ol] had an IC50 of 0.5 µM.

`Cc1ncc(C)n2nc(CCc3ccc4ccc(C(F)(F)F)cc4n3)nc12` [2-[2-(5,8-Dimethyl-[1,2,4]triazolo[1,5-a]pyrazin-2-yl)-ethyl]-7-trifluoromethyl-quinoline]: the IC50 was 0.24 µM.

Compound `Cc1ncc(C)n2nc(CCc3ccc4ccc(F)cc4n3)nc12` [2-[2-(5,8-Dimethyl-[1,2,4]triazolo[1,5-a]pyrazin-2-yl)-ethyl]-7-fluoro-quinoline] came in with an IC50 of 0.015 µM.

`COc1ccc2ccc(/C=C/c3nc4c(C)ncc(C)n4n3)nc2c1` [2-[(E)-2-(5,8-Dimethyl-[1,2,4]triazolo[1,5-a]pyrazin-2-yl)-vinyl]-7-methoxy-quinoline] registered an IC50 of 0.013 µM. With `Cc1ncc(C)n2nc(/C=C/c3ccc4cc(OC(F)(F)F)ccc4n3)nc12` [2-[(E)-2-(5,8-Dimethyl-[1,2,4]triazolo[1,5-a]pyrazin-2-yl)-vinyl]-6-trifluoromethoxy-quinoline] the figure was 2.8 µM. As for `Cc1cc(C)n2nc(CCc3ccc4ccccc4n3)nc2n1` [2-[2-(5,7-Dimethyl-[1,2,4]triazolo[1,5-a]pyrimidin-2-yl)-ethyl]-quinoline], it took 0.072 µM to reach half-maximal inhibition (IC50).

Compound `Cc1cc(C)n2cc(CCc3ccc4ccccc4n3)nc2n1` [2-[2-(5,7-Dimethyl-imidazo[1,2-a]pyrimidin-2-yl)-ethyl]-quinoline] registered a concentration for half-maximal inhibition (IC50) of 0.31 µM.

As for `Cc1ncc(C)n2nc(/C=C/c3ccc4cc(F)ccc4n3)nc12` [2-[(E)-2-(5,8-Dimethyl-[1,2,4]triazolo[1,5-a]pyrazin-2-yl)-vinyl]-6-fluoro-quinoline], the IC50 was found to be 0.19 µM. In the case of `COc1ccc(C)n2nc(CCc3cc(C)c4ccccc4n3)nc12` [2-[2-(8-Methoxy-5-methyl-[1,2,4]triazolo[1,5-a]pyridin-2-yl)-ethyl]-4-methyl-quinoline], the IC50 was 0.042 µM. Consider `Cc1cc(CCc2nc3cccc(C)n3n2)nc2ccccc12` [4-Methyl-2-[2-(5-methyl-[1,2,4]triazolo[1,5-a]pyridin-2-yl)-ethyl]-quinoline], for which 0.14 µM corresponded to half-maximal inhibition (IC50). Take `Cc1ncc(C)n2nc(CCc3ccc4cc(C#N)c(Cl)cc4n3)nc12` [7-Chloro-2-[2-(5,8-dimethyl-[1,2,4]triazolo[1,5-a]pyrazin-2-yl)-ethyl]-quinoline-6-carbonitrile]: the IC50 is 0.059 µM.

As for `Cc1cnc(C)n2nc(CCc3ccc4cc(C(C)C)ccc4n3)nc12` [2-[2-(5,8-Dimethyl-[1,2,4]triazolo[1,5-c]pyrimidin-2-yl)-ethyl]-6-isopropyl-quinoline], the 50% inhibitory concentration (IC50) was 0.061 µM.

As to `Cc1ncc(C)n2nc(CCc3ccc4c(F)c(F)cc(F)c4n3)nc12` [2-[2-(5,8-Dimethyl-[1,2,4]triazolo[1,5-a]pyrazin-2-yl)-ethyl]-5,6,8-trifluoro-quinoline], the IC50 came to 0.36 µM. With `Cc1cc2nc(CCc3nc4c(C)ncc(C)n4n3)ccc2cc1F` [2-[2-(5,8-Dimethyl-[1,2,4]triazolo[1,5-a]pyrazin-2-yl)-ethyl]-6-fluoro-7-methyl-quinoline] the figure was 0.0088 µM. For the compound `Cc1ncc(C)n2nc(CCc3ccc4cc(F)ccc4n3)nc12` [2-[2-(5,8-Dimethyl-[1,2,4]triazolo[1,5-a]pyrazin-2-yl)-ethyl]-6-fluoro-quinoline], the IC50 is 0.024 µM and 0.026 µM. Consider `COc1ccc(C)n2nc(CCc3ccc4ccccc4n3)nc12` [2-[2-(8-Methoxy-5-methyl-[1,2,4]triazolo[1,5-a]pyridin-2-yl)-ethyl]-quinoline], for which half-maximal inhibition (IC50) required 0.012 µM. Compound `Cc1ncc(C)n2nc(CCc3ccc4ccc(Cl)cc4n3)nc12` [7-Chloro-2-[2-(5,8-dimethyl-[1,2,4]triazolo[1,5-a]pyrazin-2-yl)-ethyl]-quinoline] displayed an IC50 of 0.052 µM. For the compound `Cc1ncc(C)n2nc(CCc3ccc4cc(F)cc(F)c4n3)nc12` [2-[2-(5,8-Dimethyl-[1,2,4]triazolo[1,5-a]pyrazin-2-yl)-ethyl]-6,8-difluoro-quinoline], the IC50 was determined as 0.3 µM.

Turning to `Cc1ncc(C)n2nc(CCc3ccc4c(F)cccc4n3)nc12` [2-[2-(5,8-Dimethyl-[1,2,4]triazolo[1,5-a]pyrazin-2-yl)-ethyl]-5-fluoro-quinoline], inhibition was half-maximal at 0.12 µM (IC50). Compound `Cc1ncc(C)n2nc(CCc3cc(F)c4ccccc4n3)nc12` [2-[2-(5,8-Dimethyl-[1,2,4]triazolo[1,5-a]pyrazin-2-yl)-ethyl]-4-fluoro-quinoline] yielded an IC50 of 0.028 µM. As for `Cc1cc(C)n2cc(/C=C\c3ccc4ccccc4n3)nc2n1` [2-[(Z)-2-(5,7-Dimethyl-imidazo[1,2-a]pyrimidin-2-yl)-vinyl]-quinoline], the IC50 turned out to be 0.24 µM.

The compound `COc1ccc(C)n2nc(CCc3ccc4cc(F)ccc4n3)nc12` [6-Fluoro-2-[2-(8-methoxy-5-methyl-[1,2,4]triazolo[1,5-a]pyridin-2-yl)-ethyl]-quinoline] returned a 50% inhibitory concentration (IC50) of 0.034 µM. Take `Cc1ncc(C)n2nc(CCc3ccc4cc5c(cc4n3)OC(F)(F)O5)nc12` [6-[2-(5,8-Dimethyl-[1,2,4]triazolo[1,5-a]pyrazin-2-yl)-ethyl]-2,2-difluoro-[1,3]dioxolo[4,5-g]quinoline]: the midpoint of inhibition, the IC50, lay at 0.52 µM.

On to `Cc1ccc(C)n2nc(CCc3ccc4ccccc4n3)nc12` [2-[2-(5,8-Dimethyl-[1,2,4]triazolo[1,5-a]pyridin-2-yl)-ethyl]-quinoline], for which the 50% inhibitory concentration (IC50) stood at 0.024 µM. `COc1cc(CCc2nc3cccc(C)n3n2)nc2ccccc12` [4-Methoxy-2-[2-(5-methyl-[1,2,4]triazolo[1,5-a]pyridin-2-yl)-ethyl]-quinoline] had an IC50 of 0.19 µM.
